Data as given in patent US20250034170A1, “SMALL MOLECULE MODULATORS OF GLUCOCEREBROSIDASE ACTIVITY AND USES THEREOF” (Vanqua Bio, Inc., priority 2021, published 2025).

Molecular target: T1, GCase (Homo sapiens, UniProt P04062)
T1 construct: endogenous in cells; host or cells: HeLa cells
T1 sequence (P04062 40-536): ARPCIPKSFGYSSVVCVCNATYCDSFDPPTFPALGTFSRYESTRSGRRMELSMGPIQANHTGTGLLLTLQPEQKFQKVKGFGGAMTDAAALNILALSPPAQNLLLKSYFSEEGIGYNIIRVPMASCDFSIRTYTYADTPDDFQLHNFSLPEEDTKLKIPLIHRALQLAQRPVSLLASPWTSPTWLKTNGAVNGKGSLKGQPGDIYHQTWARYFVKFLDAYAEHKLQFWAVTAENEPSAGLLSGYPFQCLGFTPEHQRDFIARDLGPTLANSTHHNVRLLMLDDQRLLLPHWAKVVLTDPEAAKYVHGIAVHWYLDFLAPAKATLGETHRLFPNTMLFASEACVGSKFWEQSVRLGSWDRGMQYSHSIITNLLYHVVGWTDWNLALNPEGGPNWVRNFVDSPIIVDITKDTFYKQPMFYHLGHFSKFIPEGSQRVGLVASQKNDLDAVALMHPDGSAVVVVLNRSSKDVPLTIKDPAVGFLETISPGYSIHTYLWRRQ
Test: activation of GCase in a live cell PFB assay in HELA cells
Type: cell-based
Conditions: EC50 given as range classes
Experimental: Exemplary compounds were evaluated for activation of GCase in a live cell PFB assay in HELA cells (essentially as described in Ysselstein et al., “LRRK2 kinase activity regulates lysosomal glucocerebrosidase in neurons derived from Parkinson's disease patients” Nature Communications (2019) 10:5570). […] EC50 ranges: A: <10 μM; B: >10-50 μM; C: >50-100 μM; D: >100 μM.

EC50 [µM]	Structure (SMILES)
10 to 50	Cn1c(N2CCC3(CN(c4cnc(C(F)(F)F)nc4)C3)C2)nc2c(cnn2CC(F)(F)F)c1=O [Cmpd 1018]
< 10	CCn1c(N2CCC3(CC2)CC(=O)N(c2ccnc(C(F)(F)F)c2)C3)nc2c(cnn2CC(F)F)c1=O [Cmpd 1019]
< 10	Cc1nn(CC(F)F)c2nc(N3CCC4(CC3)CC(=O)N(c3ccnc(C(F)(F)F)c3)C4)n(C)c(=O)c12 [Cmpd 1020]
10 to 50	COc1ncc(N2CCC3(CN(c4ccnc(C(F)(F)F)c4)C3)C2)nc1-c1nncs1 [Cmpd 1021]
> 100	COc1ncc(N2CCC3(CN(c4cnc(C(F)(F)F)nc4)C3)C2)nc1-c1nncs1 [Cmpd 1022]
< 10	FC(F)(F)c1cc(N2CC3(CCN(c4cncc(-c5nnc(C(F)(F)F)s5)n4)C3)C2)ccn1 [Cmpd 1023]
50 to 100	FC(F)(F)c1cc(N2CC3(CCN(c4cncc(-c5nnc(C(F)(F)F)o5)n4)C3)C2)ccn1 [Cmpd 1024]
< 10	FC(F)(F)c1ncc(N2CC3(CCN(c4cncc(-c5nnc(C(F)(F)F)s5)n4)C3)C2)cn1 [Cmpd 1025]
50 to 100	FC(F)(F)c1ncc(N2CC3(CCN(c4cncc(-c5nnc(C(F)(F)F)o5)n4)C3)C2)cn1 [Cmpd 1026]
10 to 50	FC(F)(F)c1cc(N2CC3(CCN(c4cncc(-c5nccs5)n4)C3)C2)ccn1 [Cmpd 1027]
10 to 50	FC(F)(F)c1cc(N2CC3(CCN(c4cncc(-c5ncc(C(F)(F)F)s5)n4)C3)C2)ccn1 [Cmpd 1028]
< 10	FC(F)(F)c1cc(N2CC3(CCN(c4cncc(-c5cncs5)n4)C3)C2)ccn1 [Cmpd 1029]
< 10	CC(C)c1cnc(C(F)(F)F)cc1N1CC2(CCN(c3cnc4cnn(CC(F)F)c4n3)C2)C1 [Cmpd 1030]
< 10	CCCc1cnc(C(F)(F)F)cc1N1CC2(CCN(c3cnc4cnn(CC(F)F)c4n3)C2)C1 [Cmpd 1031]
< 10	CCc1cnc(C(F)(F)F)cc1N1CC2(CCN(c3cnc4cnn(CC(F)F)c4n3)C2)C1 [Cmpd 1032]
< 10	FC(F)(F)CCn1ncc2ncc(N3CCC4(CN(c5ccnc(C(F)(F)F)c5)C4)C3)nc21 [Cmpd 1033]

Same assay, conditions: activation of GCase, EC50 ranges

Structure (SMILES)	EC50 [µM]
FC(F)(F)OCCn1ncc2ncc(N3CCC4(CN(c5ccnc(C(F)(F)F)c5)C4)C3)nc21 [Cmpd 1034]	< 10
Cc1nc2cnn(CC(F)F)c2nc1N1CCC2(CN(c3ccnc(C(F)(F)F)c3)C2)C1 [Cmpd 1035]	< 10
Cc1nc2cnn(CC(F)F)c2nc1N1CCC2(CN(c3cnc(C(F)(F)F)nc3)C2)C1 [Cmpd 1036]	> 100
Cc1ncc(-c2nncs2)nc1N1CCC2(CN(c3ccnc(C(F)(F)F)c3)C2)C1 [Cmpd 1037]	< 10
Cc1ncc(-c2nncs2)nc1N1CCC2(CN(c3cnc(C(F)(F)F)nc3)C2)C1 [Cmpd 1038]	10 to 50
Cc1cnc(N2CC3(CCN(c4cnc5cnn(CC(F)F)c5n4)C3)C2)cn1 [Cmpd 1039]	10 to 50
Cc1cc(N2CC3(CCN(c4cnc5cnn(C6COC6)c5n4)C3)C2)cc(C(F)(F)F)n1 [Cmpd 1040]	10 to 50
Cc1c(N2CC3(CCN(c4cnc5cnn(C6COC6)c5n4)C3)C2)ccnc1C(F)(F)F [Cmpd 1041]	> 100
Cc1cnc(C(F)(F)F)cc1N1CC2(CCN(c3cnc4cnn(C5COC5)c4n3)C2)C1 [Cmpd 1042]	> 100
CCn1c(-c2ccccc2)nc2ncc(N3CCC4(CN(c5ccnc(C(F)(F)F)c5)C4)C3)nc21 [Cmpd 1043]	< 10
CCn1c(-c2cncc(F)c2)nc2ncc(N3CCC4(CN(c5ccnc(C(F)(F)F)c5)C4)C3)nc21 [Cmpd 1044]	< 10
CCn1c(-c2cncc(F)c2)nc2nc(N3CCC4(CN(c5ccnc(C(F)(F)F)c5)C4)C3)cnc21 [Cmpd 1045]	50 to 100
FC(F)Cn1ncc2ncc(N3CCC4(C3)CN(c3nnc(C(F)(F)F)s3)C4)nc21 [Cmpd 1046]	10 to 50
Cc1sc(N2CC3(CCN(c4cnc5cnn(CC(F)F)c5n4)C3)C2)nc1C(F)(F)F [Cmpd 1047]	> 100
CC[C@H]1N(c2cnc(C(F)(F)F)nc2)C[C@]12CCN(c1cnc3cnn(CC(F)F)c3n1)C2 [Cmpd 1048]	10 to 50
CC[C@@H]1N(c2cnc(C(F)(F)F)nc2)C[C@]12CCN(c1cnc3cnn(CC(F)F)c3n1)C2 [Cmpd 1049]	10 to 50
CCn1c(N2CCC3(CN(c4nnc(C(F)(F)F)s4)C3)C2)nc2c(cnn2CC(F)F)c1=O [Cmpd 1050]	10 to 50
FC(F)Cn1ncc2cnc(N3CCC4(C3)CN(c3nnc(C(F)(F)F)s3)C4)nc21 [Cmpd 1051]	50 to 100
Cc1nnc(-c2cncc(N3CCC4(CN(c5ccnc(C(F)(F)F)c5)C4)C3)n2)s1 [Cmpd 1052]	< 10

The next lines start with the values.

EC50 [µM]	Structure (SMILES)
< 10	Cc1nc(N2CCC3(CCN(c4nc5c(cnn5CC(F)F)c(=O)n4C)CC3)C2)cc(C(F)(F)F)n1 [Cmpd 1053]
< 10	Cn1c(N2CCC3(CCN(c4ccc(C(F)(F)F)nc4)C3)CC2)nc2c(cnn2CC(F)F)c1=O [Cmpd 1054]
< 10	FC(F)(F)c1cc(N2CCC3(CCN(c4cnc5cnn(C6COC6)c5n4)CC3)C2)cnn1 [Cmpd 1055]
10 to 50	Cc1nc(C(F)(F)F)ncc1N1CCC2(CCN(c3cnc4cnn(C5COC5)c4n3)CC2)C1 [Cmpd 1056]
10 to 50	Cn1c(N2CCC3(CCN(c4nccc(C(F)(F)F)n4)C3)CC2)nc2c(cnn2C2COC2)c1=O [Cmpd 1057]
10 to 50	Cn1c(N2CCC3(CCN(c4ncc(C(F)(F)F)cn4)C3)CC2)nc2c(cnn2C2COC2)c1=O [Cmpd 1058]
< 10	Cn1c(N2CCC3(CCN(c4ccnc(C(F)(F)F)c4)C3)CC2)nc2c(cnn2C2COC2)c1=O [Cmpd 1059]
< 10	Cn1c(N2CCC3(CCN(c4ccnc(C(F)(F)F)n4)C3)CC2)nc2c(cnn2C2COC2)c1=O [Cmpd 1060]
50 to 100	O=C([C@H]1CCn2c1nccc2=O)N1CCC2(C1)CN(c1ccnc(C(F)(F)F)c1)C2 [Cmpd 1061]
10 to 50	FC(F)c1nnc(-c2cncc(N3CCC4(CN(c5ccnc(C(F)(F)F)c5)C4)C3)n2)s1 [Cmpd 1062]
10 to 50	Cc1nc(N2CC3(CCN(c4cnc5cnn(C6COC6)c5n4)C3)C2)cc(C(F)(F)F)n1 [Cmpd 1063]
10 to 50	CCc1nn(CC(F)F)c2nc(N3CCC4(CN(c5cc(C(F)(F)F)nc(C)n5)C4)C3)cnc12 [Cmpd 1064]
10 to 50	CCc1nn(C2COC2)c2nc(N3CCC4(CN(c5cc(C(F)(F)F)nc(C)n5)C4)C3)cnc12 [Cmpd 1065]
10 to 50	CCc1nn(CC(F)F)c2nc(N3CCC4(CN(c5cc(C(F)(F)F)nc(C)n5)C4)C3)ncc12 [Cmpd 1066]
< 10	CCc1nn(C2COC2)c2nc(N3CCC4(CN(c5cc(C(F)(F)F)nc(C)n5)C4)C3)ncc12 [Cmpd 1067]
10 to 50	CCc1nn(CC(F)F)c2nc(N3CCC4(CN(c5ccnc(C(F)(F)F)c5)C4)C3)cnc12 [Cmpd 1068]
10 to 50	CCc1nn(C2COC2)c2nc(N3CCC4(CN(c5ccnc(C(F)(F)F)c5)C4)C3)cnc12 [Cmpd 1069]
< 10	CCc1nn(C2COC2)c2nc(N3CCC4(CN(c5ccnc(C(F)(F)F)c5)C4)C3)ncc12 [Cmpd 1070]
< 10	CCc1nn(CC(F)F)c2nc(N3CCC4(CN(c5ccnc(C(F)(F)F)c5)C4)C3)ncc12 [Cmpd 1071]
10 to 50	FC(F)Cn1ncc2cnc(N3CCC4(CN(c5ccnc(C(F)(F)F)c5)C4)C3)cc21 [Cmpd 1072]
< 10	FC(F)Cn1ncc2ccc(N3CCC4(CN(c5ccnc(C(F)(F)F)c5)C4)C3)nc21 [Cmpd 1073]
